Assay results from publication PMC3994986 (Pigment cell & melanoma research, 2012).
Each block holds one substance with its values, some of them ahead of it. Ends that are not written are not given here.

Assays:
human MC1R [1] = biological target: T1, human MC1R (Homo sapiens, UniProt Q01726); assay type: cell-based
human MC1R [2] = biological target: T1, human MC1R; assay: cAMP accumulation in HEK293 cells stably expressing human MC1R wild type; assay type: cell-based; settings: for agonist character for MC1R-mediated cAMP signalling: HEK cells expressing human MC1R, relative to NDP-MSH
MC1R [3] = settings: ref Candille et al., 2007; cited from earlier work
HEK293 control cells = assay: pERK response in control HEK293 cells; assay type: cell-based, human; settings: Figure S2B and E; ligand not given
[4] = test system: MC1R variants D84E, V92M, R142H, R151C, R160W, D294H; assay type: cell-based, human
MC1R [5] = assay: Inhibition of α-MSH-induced cAMP; assay type: cell-based; settings: Figure S1H
mouse Mc1r = settings: ref Candille et al., 2007, cited from earlier work
dog Mc1r = settings: ref Candille et al., 2007; cited from earlier work
[6] = test system: mouse melan-a melanocytes; settings: concentrations up to 1uM, ref Candille et al., 2007; cited from earlier work
MAPK signalling = settings: ref Busca et al., 2000; cited from earlier work
[7] = test system: pERK (HEK293 cells expressing MC1R); assay type: cell-based, human; settings: PKA inhibitor H89; 300 nM HBD3 (Figure 2C and D); NDP-MSH (Figure S2D)
[8] = test system: MC1R variants in HBL human melanoma cells; settings: ref Herraiz et al., 2009, 2011; cited from earlier work
NR4A receptor family = settings: ref Smith et al., 2008; cited from earlier work
MC1R variant receptors = settings: ref Beaumont et al., 2005, 2007; cited from earlier work

T1 sequence (Q01726 whole entry): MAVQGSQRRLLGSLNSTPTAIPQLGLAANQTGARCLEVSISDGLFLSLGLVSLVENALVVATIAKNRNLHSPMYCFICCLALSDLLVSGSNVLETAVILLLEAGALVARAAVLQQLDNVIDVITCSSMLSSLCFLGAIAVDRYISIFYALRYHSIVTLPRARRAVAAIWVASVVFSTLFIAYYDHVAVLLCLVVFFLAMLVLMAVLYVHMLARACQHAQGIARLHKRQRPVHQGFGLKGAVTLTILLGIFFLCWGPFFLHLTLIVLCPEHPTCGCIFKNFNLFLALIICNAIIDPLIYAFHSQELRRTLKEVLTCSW

competitive inhibition of NDP-MSH relative to ASIP-YY (cAMP) (human MC1R [1]): weaker competitive inhibitor to NDP-MSH
agonist character for MC1R-mediated cAMP signalling (human MC1R [2]; listed as β-defensin 3): weak partial agonist for cAMP signalling
Substance: human β-defensin 3 (GIINTLQKYYCRVRGGRCAVLSCLPKEEQIGKCSTRGRKCCRRKK; ends and bridges not checked; cysteine pairing not given here; UniProt P81534 23-67, looked up) [HBD3]
inhibition of 1 nM NDP-MSH-induced cAMP (human MC1R [1]; 100 or 300 nM HBD3, two MC1R-expressing HEK clones (WTe, WT#21), 5–10 min, n = 3): able to inhibit the level of 1 nM NDP-MSH-induced cAMP
effect of increased concentration on level of inhibition (human MC1R [1]; 100 vs 300 nM HBD3, 1 nM NDP-MSH): did not significantly increase the level of inhibition
cAMP induction compared to 100 nM ASIP-YY (human MC1R [2]; 300 nM HBD3, Figure S1E and F): significant increase compared to 100 nM ASIP-YY
agonist character for MC1R-mediated cAMP signalling (human MC1R [2]): partial agonist, with both agonistic and antagonistic effects on cAMP signalling
binding to MC1R (MC1R [3]): found to bind with high affinity to the melanocortin-1 receptor
displacement of NDP-MSH in ligand-binding assays (MC1R [3]): displace NDP-MSH in ligand-binding assays
pERK induction in control cells (HEK293 control cells): no induction observed in control cells
activation of ERK by variants ([4]; 300 nM HBD3, 5 min, exception of R151C and D84E, 2–3 independent experiments, Figure 3A, S3B): With the exception of R151C and D84E, HBD3 stimulation produced a similar activation of ERK by variants
competitive antagonism of α-MSH induction of cAMP (MC1R [5]): able to act as a competitive antagonist for α-MSH induction of cAMP

Substance: β-defensin 103 [CBD103]
Ki (mouse Mc1r; mouse Mc1r): 15.1 nM
binding to mouse Mc1r (mouse Mc1r): able to bind to dog and mouse Mc1r
binding to dog Mc1r (dog Mc1r): able to bind to dog and mouse Mc1r
cAMP induction in mouse melanocytes [6]: did not induce cAMP

Substance: alpha-melanocyte stimulating hormone (SYSMEHFRWGKPV; ends and bridges not checked; UniProt P01189 138-150, looked up) [α-MSH]
induction of MAPK signalling (MAPK signalling): induce MAPK signalling

Substance: NDP- melanocyte stimulating hormone [NDP-MSH]
PKA dependence of MAPK activation [7]: This was also the case for NDP-MSH activation of MAPK
MAPK activation by variant receptors versus wild-type MC1R [8]: able to activate MAPK as efficiently as wild-type MC1R
induction of the NR4A receptor family (NR4A receptor family): PKC and p38 are involved in the NDP-MSH induction of the NR4A receptor family
induction of pERK over basal levels by variant receptors ([4]; 10 nM NDP-MSH, 5 min, 2–3 independent experiments, Figure 3A, S3A): all variant receptors show an induction of pERK over the basal levels
average pERK increase over basal levels, combined variant receptor cells ([4]; 10 nM NDP-MSH, 5 min, mean, n ≥ 3, normalized to GAPDH): 2.7 fold
pERK of combined variant receptor clones compared to control cells ([4]; 10 nM NDP-MSH, 5 min, n ≥ 3, t-test): significant increase compared to the levels of pERK in control cells
cAMP response of MC1R variant receptors (MC1R variant receptors): impaired cAMP responses
